Results taken from patent US11000627B2, “Treatment of implants with phosphonic acid compounds” (Nano Bridging Molecules SA, priority 2016, dated 2021).
Marks after values point to notes of the source that are not given here.

Legend:
Type in all cases: physicochemical
[1] = XPS phosphorus over metal ratio on Titanium grade 4 cylinders; conditions: 0.7 mM, Metal = Ti2p
Procedure: Two Titanium grade 4 cylinders (bulk composition atomic concentration Titanium 100%; length 6.0 mm, diameter 2.4 mm) were provided with a roughened surface, produced by sand blasting and acid etching according to industry standards. The cylinders were immersed in 6 ml of a 2% (v/v) aqueous solution of deconex 15 PF-x (which is a phosphate free, potassium hydroxide based standard cleaning agent). The solution was placed in an ultrasonic bath (output frequency 30 kHz) and sonicated at 65° C. for 15 min. The cylinders were removed from the cleaning agent solution and rinsed with water as follows: 2 times with 10 ml, swirling at room temperature; 4 times with 10 ml, sonicating for 2 min at 65° C.; 1 time with 10 ml, swirling at room temperature. The cylinders were then placed into 6 ml of a 0.7 mM aqueous solution of 1,1,3,3-propane tetraphosphonic acid. The solution was placed in the ultrasonic bath and sonicated at 65° C. for 15 min. The cylinders were rinsed with water as follows: 2 times with 10 ml, swirling at room temperature; 1 time with 10 ml, sonicating for 2 min at 65° C.; 1 time with 10 ml, swirling at room temperature. The cylinders were dried in a desiccator over P2O5 and under vacuum (ca 20 mbar) for at least 3 hours.
Two Titanium grade 4 cylinders (bulk composition atomic concentration Titanium 100%; length 6.0 mm, diameter 2.4 mm) were provided with a roughened surface, produced by sand blasting and acid etching according to industry standards. The cylinders were immersed in 6 ml of a 2% (v/v) aqueous solution of deconex 15 PF-x (which is a phosphate free, potassium hydroxide based standard cleaning agent). The solution was placed in an ultrasonic bath (output frequency 30 kHz) and sonicated at room temperature for 15 min. The cylinders were removed from the cleaning agent solution and rinsed with water as follows: 2 times with 10 ml, swirling at room temperature; 4 times with 10 ml, sonicating for 2 min at room temperature; 1 time with 10 ml, swirling at room temperature. The cylinders were then placed into 6 ml of a 0.7 mM aqueous solution of 1,1,3,3-propane tetraphosphonic acid. The solution was swirled thoroughly and left to stand at room temperature for 15 min. The cylinders were rinsed with water as follows: 2 times with 10 ml, swirling at room temperature; 1 time with 10 ml, sonicating for 2 min at room temperature; 1 time with 10 ml, swirling at room temperature. The cylinders were dried in a desiccator over P2O5 and under vacuum (ca 20 mbar) for at least 3 hours.

[2] = Thickness of phosphonic acid layer by depth profiling using XPS; conditions: for Phosphorus/Metal: Metal = Zr3d + Y3d
Procedure: Two ceramic discs (yttria stabilized zirconia; length 5.0 mm, diameter 1.0 mm) were provided with a roughened surface, produced by sand blasting and acid etching according to industry standards. The discs were immersed in 80 ml of a 2% (v/v) aqueous solution of deconex 15 PF-x (which is a phosphate free, potassium hydroxide based standard cleaning agent). The solution was placed in an ultrasonic bath (output frequency 30 kHz) and sonicated at 70° C. for 15 min. This step was repeated a second time. The discs were removed from the cleaning agent solution and rinsed with water as follows: 2 times with 90 ml, swirling at room temperature; 3 times with 90 ml, sonicating for 2 min at 70° C. The discs were then placed into 2 glass bottles and immersed into 2.5 ml of a 0.7 mM aqueous solution of 1,1,3,3-propane tetraphosphonic acid. The solutions were placed in the ultrasonic bath and sonicated at 70° C. for 60 min. The discs were rinsed with water as follows: 1 time with 10 ml, swirling at room temperature; 1 time with 10 ml, sonicating for 2 min at 65° C.; 1 time with 10 ml, swirling at room temperature. The discs were dried in a desiccator over P2O5 and under vacuum (ca 20 mbar) for at least 3 hours.
Following the surface treatment, the thickness of the phosphonic acid layer was determined by depth profiling using XPS. Ion gun sputtering cycles were alternated with XPS measurements. An ion gun was used to etch the material for a defined period of time. Once turned off, XPS spectra were acquired. The depth profiles were performed using a Kratos AXIS Nova high resolution spectrometer. An Al-standard source was used for the measurement. Depth profile sputtering was performed by scanning a 3.8 keV Ar+ beam at 100 μA extractor current over an area of 4 mm×4 mm. The sputter rate of Ta2O5 standards measured under these conditions (6 nm/min) was used to convert sputter time in approximate sputter depth. Spectra were measured after the following sputtering times: 0, 5, 10, 15, 20, 30, 40, 60 sec. Spectra were peak fitted after background subtraction by assuming a Gaussian/Lorentzian (90-70/10-30) peak shape. All peaks between 0 eV to 1200 eV were inspected.
The phosphorus peak was measured at % atomic concentrations close to the detection limit (0.5%) after 10 seconds of sputtering.

[3] = XPS phosphorus over metal ratio on ceramic dental implants; conditions: sonicated 70° C. 60 min, Metal = Al2s + Zr3d + Y3d
Procedure: A ceramic dental implant (alumina toughened zirconia, yttria stabilized; length 11.0 mm, diameter 3.8 mm) was provided with a smooth surface. The dental implant was immersed in 50 ml of a 2% (v/v) aqueous solution of deconex 15 PF-x (which is a phosphate free, potassium hydroxide based standard cleaning agent). The solution was placed in an ultrasonic bath (output frequency 30 kHz) and sonicated at 70° C. for 15 min. This step was repeated a second time. The implant was removed from the cleaning agent solution and rinsed with water as follows: 2 times with 50 ml, swirling at room temperature; 3 times with 50 ml, sonicating for 2 min at 70° C. The implant was then placed into 15 ml of a 0.7 mM aqueous solution of 1,1,3,3-propane tetraphosphonic acid. The solution was placed in the ultrasonic bath and sonicated at 70° C. for 60 min. The implant was rinsed with water as follows: 1 time with 10 ml, swirling at room temperature; 2 times with 10 ml, sonicating for 2 min at 65° C.; 1 time with 10 ml, swirling at room temperature. The dental implant was dried in a desiccator over P2O5 and under vacuum (ca 20 mbar) for at least 3 hours.
Following the surface treatment with one phosphonic acid compound as described in Examples 1 to 7 the samples were analyzed by X-ray photoelectron spectroscopy (XPS). XPS analyses were performed on an Axis Ultra spectrometer from Kratos (Kratos, Manchester, U.K.) equipped with a concentric hemispherical analyzer and using a monochromatized aluminum anode X-ray source (Al Kα1,2 1486.6 eV, full width at half maximum, fwhm=0.85 eV, 15 kV, 150 W). The samples were investigated under ultrahigh vacuum conditions: 10^−8-10^−7 Pa. Spectra were taken at a 90° takeoff angle with respect to the surface. A sample area of 300×700 μm^2 or 700×700 μm^2 was analyzed with a pass energy of 80.0 eV for survey scans. The spectrometer was calibrated by using Cu 2p3/2 (932.7 eV) and Au 4f7/2 (84.0 eV) signals. Surface sensitivity factors used to determine the atomic concentrations were those of the instrument. Spectra were peak fitted after background subtraction by assuming a Gaussian/Lorentzian (90-70/10-30) peak shape. All peaks between 0 eV to 1200 eV were inspected.
The phosphorus over metal ratio (“Phosphorus/Metal”) was calculated dividing the % atomic concentration of phosphorus by the sum of the % atomic concentrations of all metals expected in the analyzed sample.
Four ceramic dental implants (alumina toughened zirconia, yttria stabilized; length 11.0 mm, diameter 3.8 mm) were provided with a smooth surface. The dental implants were immersed in 300 ml of a 2% (v/v) aqueous solution of deconex 15 PF-x (which is a phosphate free, potassium hydroxide based standard cleaning agent). […] The samples were analyzed by X-ray photoelectron spectroscopy (XPS). […]

Phosphorus/Metal ([1]; Phosphonic acid 5 min, sonicated 65° C.): 0.24^b
Phosphorus/Metal ([1]; Phosphonic acid 10 min, sonicated 65° C.): 0.28^b
Phosphorus/Metal ([1]; Phosphonic acid 30 min, sonicated 65° C.): 0.30^b
Phosphorus/Metal ([1]; Phosphonic acid 60 min, sonicated 65° C.): 0.28^b
Phosphorus/Metal ([1]; all steps sonicated at 40° C., 15 min): 0.22^b
Phosphorus/Metal ([1]; all steps sonicated at 50° C., 15 min): 0.26^b
Phosphorus/Metal ([1]; all steps sonicated at 60° C., 15 min): 0.25^b
Phosphorus/Metal ([1]; all steps sonicated at 70° C., 15 min): 0.25^b
Phosphorus/Metal ([1]; all steps sonicated at 80° C., 15 min): 0.27^b
Phosphorus/Metal ([1]; all steps sonicated at 90° C., 15 min): 0.27^b
Phosphorus/Metal ([1]; pre-treatment Deconex 15PF-x 5 min, sonicated 65° C. 15 min): 0.36^b
Phosphorus/Metal ([1]; pre-treatment Deconex 15PF-x 15 min, sonicated 65° C. 15 min): 0.32^b
Phosphorus/Metal ([1]; pre-treatment Deconex 15PF-x 30 min, sonicated 65° C. 15 min): 0.32^b
thickness of monolayer ([2]; 0.7 mM, sonicated 70° C. 60 min, sputter depth from Ta2O5 standard rate): about 1 nm
Phosphorus/Metal ([2]; sputtering 0 sec, depth 0 nm): 0.18^b
Phosphorus/Metal ([2]; sputtering 5 sec, depth 0.5 nm): 0.03^b
Phosphorus/Metal ([2]; sputtering 10 sec, depth 1 nm): 0.02^b
Phosphorus/Metal ([2]; sputtering 15 sec, depth 1.5 nm): 0.02^b
Phosphorus/Metal ([2]; sputtering 20 sec, depth 2 nm): 0.01^b
Phosphorus/Metal ([2]; sputtering 30 sec, depth 3 nm): 0.02^b
Phosphorus/Metal ([2]; sputtering 40 sec, depth 4 nm): 0.01^b
Phosphorus/Metal ([2]; sputtering 60 sec, depth 6 nm): 0.00^b
Phosphorus/Metal ([3]; 0.7 mM): 0.12
Phosphorus/Metal ([3]; 2.5 mM): 0.12
Phosphorus/Metal ([3]; 5 mM): 0.11
Phosphorus/Metal ([3]; 10 mM): 0.12
SMILES: O=P(O)(O)C(CC(P(=O)(O)O)P(=O)(O)O)P(=O)(O)O [1,1,3,3-propane tetraphosphonic acid]
